Assay results from patent US8937091B2 (Japan Science and Technology Agency, priority 2009, dated 2015).

Columns and labels:
[1] = tested on: SOCE (store operated calcium entry) in CHO cells; test: Assay of SOCE (store operated calcium entry)-inhibiting action; type: cell-based, Chinese hamster; conditions: Cricetulus griseus, CHO; for inhibition at 10 µM: test compound 10 μmol; for inhibition at 10 µM / inhibition at 30 µM / inhibition at 100 µM: CHO cells, thapsigargin, read-out: SOCE level (percentage of inhibition); for inhibition at 30 µM: test compound 30 μmol; for inhibition at 100 µM: test compound 100 μmol; for IC50: Table 1
Protocol: The extracellular fluid (i.e., medium) of cultured Chinese hamster ovary (CHO) cells was replaced by BSS containing no calcium. One minute later, a test compound was added. Two minutes later, 1 μM thapsigargin was added to cause depletion of the intracellular calcium store. Nine minutes later, calcium chloride (final concentration: 2 mM) was added to the extracellular fluid. The SOCE-inhibiting action levels at different compound concentrations after the addition of calcium chloride were determined as the percentage of inhibition (%) by evaluating the influence of the compound on the degree of increase in the intracellular calcium concentration.
(§1) Hereafter, the numerals in parentheses written after the TG level, the SOCE level, and the IICR level correspond to the test compound concentrations. The number following the name of each title compound used in the Examples below represents a compound ID number designated arbitrarily by the present inventors.

[2] = tested on: IICR (IP3 induced calcium release) in CHO cells; test: Assay of IICR (IP3 induced calcium release)-inhibiting action; type: cell-based, Chinese hamster; conditions: for inhibition at 10 µM / inhibition at 30 µM / inhibition at 100 µM / IC50: Cricetulus griseus, CHO; for inhibition at 10 µM / inhibition at 30 µM / inhibition at 100 µM / IICR level (percentage of inhibition): CHO cells, 10 μM ATP; for inhibition at 10 µM / inhibition at 30 µM / inhibition at 100 µM: read-out: IICR level (percentage of inhibition); for IC50: Table 1
Protocol: The extracellular fluid (i.e., medium) of cultured CHO cells was replaced by BSS containing calcium. One minute later, a test compound was added. Two minutes later, 10 μM ATP was added. The IICR-inhibiting action levels at different compound concentrations after the addition of ATP were determined as the percentage of inhibition (%) by evaluating the influence of the compound on the degree of increase in the intracellular calcium concentration.
as §1

Compound	inhibition at 10 µM [1] [%]	inhibition at 30 µM [1] [%]	inhibition at 100 µM [1] [%]	inhibition at 10 µM ([2]; test compound 10 μmol) [%]	inhibition at 30 µM ([2]; test compound 30 μmol) [%]	inhibition at 100 µM ([2]; test compound 100 μmol) [%]	IC50 [1] [µM]	IC50 [2] [µM]	IICR level (percentage of inhibition) ([2]; test compound 10 μmol) [%]	IICR level (percentage of inhibition) ([2]; test compound 30 μmol) [%]	IICR level (percentage of inhibition) ([2]; test compound 100 μmol) [%]
CCCCN(CCO)CCC(=O)c1ccc(Oc2ccccc2)cc1 [Example 114, 2-(N-hydroxyethylbutyl)aminoethyl-4-phenoxyphenylketone]	0	10	40	70	100	30					
O=C(CCN1CCN(C(=O)c2ccco2)CC1)c1ccc(Oc2ccccc2)cc1 [Example 115, 2-(N-furoylpiperazyl)aminoethyl-4-phenoxyphenylketone]	0	0	30	20	20	20					
CCN(CC)CCC(=O)c1ccc(Oc2ccccc2)cc1 [Example 116, 2-(N-diethyl)aminoethyl-4-phenoxyphenylketone]	0	0	20	20	20	70					
CC(C)N(CCC(=O)c1cnccn1)Cc1ccccc1 [Example 117, 2-(N-isopropylbenzyl)aminoethyl-2-pyrazylketone]	0	0	0	20	50	90	> 100	30			
NCCCCNCCC(=O)c1ccc2ccccc2c1 [Example 118, 2-(N-aminobutyl)aminoethyl-2-naphthylketone]	0	0	0	0	0	0					
NCCCNCCCCNCCC(=O)c1ccc2ccccc2c1 [Example 119, 2-(N-aminopropylaminobutyl)aminoethyl-2-naphthylketone]	0	0	0	0	0	0					
CC(C)N(CCC(=O)c1nccs1)Cc1ccccc1 [Example 120, 2-(N-isopropylbenzyl)aminoethyl-2-thiazolylketone]	0	0	20	10	90	100					
CC(C)(C)N(CCC(=O)c1ccco1)Cc1ccccc1 [Example 121, 2-(N-t-butylbenzyl)aminoethyl-2-furylketone]	0	0	0	10	50	100	> 100	30			
CC(C)(C)N(CCO)CCC(=O)c1nccs1 [Example 122, 2-(N-t-butylhydroxyethyl)aminoethyl-2-thiazolylketone]	0	0	0	0	0	0					
CC(C)(C)N(CCO)CCC(=O)c1ccco1 [Example 123, 2-(N-t-butylhydroxyethyl)aminoethyl-2-furylketone]	0	10	20	20	20	70					
O=C(CCN(CCO)Cc1ccccc1)c1ccco1 [Example 124, 2-(N-hydroxyethylbenzyl)aminoethyl-2-furylketone]	0	0	0	20	20	70					
CN(CCC(=O)c1cccs1)Cc1ccccc1 [Example 125, 2-(N-methylbenzyl)aminoethyl-2-thiophenylketone]	0	0	0	0	30	70					
CN(CCO)CCC(=O)c1cccs1 [Example 126, 2-(N-methylhydroxyethyl)aminoethyl-2-thiophenylketone]	0	0	0	20	20	70					
O=C(CCN1CCCCC1CO)c1cccs1 (stereo not shown) [Example 127]	0	0	10	20	20	50					
O=C(CCNc1ccccc1S)c1cccs1 [Example 128, 2-(2-mercaptophenyl)aminoethylthiophenylketone]	0	0	20	0	30	10					
O=C(CCN(CCO)Cc1ccccc1)c1cnccn1 [Example 129, 2-(N-benzylhydroxyethyl)aminoethyl-2-pyrazylketone]	0	0	0	0	50	90					
O=C(CCN(CCO)CCO)c1ccco1 [Example 130, 2-(N-bis-hydroxyethyl)aminoethyl-2-furylketone]	0	0	0						20	20	50
CN1CCN(CCC(=O)c2ccccc2)CC1 [Example 131, 2-(N-methylpiperazyl)ethylphenylketone]	0	0	0	30	20	50					
O=C(CCN(CCO)c1ccccc1)c1ccco1 [Example 132, 2-(N-phenylhydroxyethyl)aminoethyl-2-furylketone]	0	0	0	10	20	20					
O=C(CCN(CCO)c1ccccc1)c1ccccc1 [Example 133, 2-(N-phenylhydroxyethyl)aminoethylphenylketone]	0	0	0	20	20	30					
O=C(CCN(CCO)c1ccccc1)c1ccncc1 [Example 134, 2-(N-phenylhydroxyethyl)aminoethyl-4-pyridylketone]	0	0	0	20	20	30					
O=C(CCN(CCO)Cc1ccccc1)c1ccncc1 [Example 135, 2-(N-benzylhydroxyethyl)aminoethyl-4-pyridylketone]	0	0	0	20	10	0					
Cc1ccc(C(=O)CCN(Cc2ccccc2)C(C)C)o1 [Example 136]	0	0	20	50	60	80					
Cc1ccc(C(=O)CCN(Cc2ccccc2)C(C)(C)C)o1 [Example 137, 2-(N-benzyl-t-butyl)aminoethyl-5-methyl-2-furylketone]	0	0	0	40	50	50					
Cc1ccc(C(=O)CCN(Cc2ccccc2)Cc2ccccc2)o1 [Example 138, 2-(N-dibenzyl)aminoethyl-5-methyl-2-furylketone]	0	10	20	0	0	10					
Cc1ccc(C(=O)CCN(CCO)Cc2ccccc2)o1 [Example 139, 2-(N-benzylhydroxyethyl)aminoethyl-5-methyl-2-furylketone]	0	0	0	20	20	30					
